Measured values published in BindingDB's records for doi:10.1016/j.bmcl.2016.09.067 (Amgen, 2016).

Columns and labels:
[1] = molecular target: Serine/threonine-protein kinase pim-2 (Homo sapiens, UniProt Q9P1W9); assay: Inhibition of recombinant Pim2 (unknown origin) by electrochemiluminescence assay
[2] = molecular target: Serine/threonine-protein kinase pim-1 (Homo sapiens, UniProt P11309); assay: Inhibition of recombinant Pim1 (unknown origin) by electrochemiluminescence assay
Sequence of Serine/threonine-protein kinase pim-1 (P11309 whole entry): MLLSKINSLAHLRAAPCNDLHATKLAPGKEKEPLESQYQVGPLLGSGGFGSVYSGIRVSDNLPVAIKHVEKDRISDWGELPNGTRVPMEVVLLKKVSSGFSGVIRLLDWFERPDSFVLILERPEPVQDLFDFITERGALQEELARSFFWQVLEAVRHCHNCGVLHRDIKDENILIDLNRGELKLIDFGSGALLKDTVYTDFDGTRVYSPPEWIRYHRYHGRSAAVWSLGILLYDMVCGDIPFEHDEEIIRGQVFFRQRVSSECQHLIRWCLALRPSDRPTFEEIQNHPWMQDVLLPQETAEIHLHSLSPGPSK

Sequence of Serine/threonine-protein kinase pim-2 (Q9P1W9 whole entry): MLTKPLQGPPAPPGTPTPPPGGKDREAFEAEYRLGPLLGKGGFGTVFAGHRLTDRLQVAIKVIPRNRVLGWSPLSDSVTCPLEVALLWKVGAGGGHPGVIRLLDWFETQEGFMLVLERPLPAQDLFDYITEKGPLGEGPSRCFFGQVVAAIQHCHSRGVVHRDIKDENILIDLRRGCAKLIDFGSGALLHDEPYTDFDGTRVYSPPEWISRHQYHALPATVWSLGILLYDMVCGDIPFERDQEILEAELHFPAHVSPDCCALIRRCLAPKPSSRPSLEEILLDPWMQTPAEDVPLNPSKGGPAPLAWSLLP

SMILES | IC50 [1] | IC50 [2]
N[C@H]1CCN(c2ccncc2Nc2ncc3ccc(-c4c(F)cccc4F)nn23)C1 [US9187486, 13] | > 1000 nM | 
N[C@H]1CCCN(c2cnccc2Nc2ncc3ccc(-c4c(F)cccc4F)nn23)C1 [US9187486, 80] | > 1000 nM | > 1000 nM
